Data from ChEMBL document CHEMBL4004821, “Design and synthesis of novel tetrandrine derivatives as potential anti-tumor agents against human hepatocellular carcinoma” (Eur J Med Chem, 2017).

What was measured:
[1] = Cytotoxicity against human MHCC97L cells assessed as growth inhibition after 24 hrs by MTT assay; type: functional, cell-based
PLC-PRF-5 = experiment: Cytotoxicity against human PLC/PRF/5 cells assessed as growth inhibition after 24 hrs by MTT assay; type: functional, cell-based; details: PLC-PRF-5, 24 h

| SMILES | IC50 [1] [µM] | IC50 (PLC-PRF-5) [µM] |
| --- | --- | --- |
| COc1cc(NC(=O)c2ccccc2Cl)c2cc1Oc1ccc(cc1)C[C@H]1c3cc(c(OC)cc3CCN1C)Oc1c(OC)c(OC)cc3c1[C@H](C2)N(C)CC3 | 2.81 | 12.1 |
| COc1cc(NC(=O)CCCl)c2cc1Oc1ccc(cc1)C[C@H]1c3cc(c(OC)cc3CCN1C)Oc1c(OC)c(OC)cc3c1[C@H](C2)N(C)CC3 | 9.21 | 6.28 |
| COc1cc(NC(=O)/C=C/c2ccccc2)c2cc1Oc1ccc(cc1)C[C@H]1c3cc(c(OC)cc3CCN1C)Oc1c(OC)c(OC)cc3c1[C@H](C2)N(C)CC3 | 7.7 | 9.81 |
| COc1cc(NC(=O)c2cccs2)c2cc1Oc1ccc(cc1)C[C@H]1c3cc(c(OC)cc3CCN1C)Oc1c(OC)c(OC)cc3c1[C@H](C2)N(C)CC3 | 11.9 | 9.01 |
| COc1cc(NC(=O)CCBr)c2cc1Oc1ccc(cc1)C[C@H]1c3cc(c(OC)cc3CCN1C)Oc1c(OC)c(OC)cc3c1[C@H](C2)N(C)CC3 | 7.86 | 6.34 |
| COc1cc(NC(=O)OCC(C)C)c2cc1Oc1ccc(cc1)C[C@H]1c3cc(c(OC)cc3CCN1C)Oc1c(OC)c(OC)cc3c1[C@H](C2)N(C)CC3 | 1.4 | 4.66 |
| COc1cc(NC(=O)c2ccc(Cl)cc2)c2cc1Oc1ccc(cc1)C[C@H]1c3cc(c(OC)cc3CCN1C)Oc1c(OC)c(OC)cc3c1[C@H](C2)N(C)CC3 | 10.3 | 11.9 |
| COc1cc(NC(=O)C=C(C)C)c2cc1Oc1ccc(cc1)C[C@H]1c3cc(c(OC)cc3CCN1C)Oc1c(OC)c(OC)cc3c1[C@H](C2)N(C)CC3 | 6.31 | 7.63 |
| COc1cc(NC(=O)c2ccc(C(F)(F)F)cc2)c2cc1Oc1ccc(cc1)C[C@H]1c3cc(c(OC)cc3CCN1C)Oc1c(OC)c(OC)cc3c1[C@H](C2)N(C)CC3 | 8.41 | 9.49 |
| COc1cc(NC(=O)c2cc[nH]n2)c2cc1Oc1ccc(cc1)C[C@H]1c3cc(c(OC)cc3CCN1C)Oc1c(OC)c(OC)cc3c1[C@H](C2)N(C)CC3 | 4.17 | 2.24 |
| COc1cc(NC(=O)C2CCCO2)c2cc1Oc1ccc(cc1)C[C@H]1c3cc(c(OC)cc3CCN1C)Oc1c(OC)c(OC)cc3c1[C@H](C2)N(C)CC3 (some centres not stated) | 5.66 | 7.32 |
| COC(=O)C(=O)Nc1cc(OC)c2cc1C[C@H]1c3c(cc(OC)c(OC)c3Oc3cc4c(cc3OC)CCN(C)[C@H]4Cc3ccc(cc3)O2)CCN1C | 2.46 | 3.72 |
| C=CCCCCCCCCC(=O)Nc1cc(OC)c2cc1C[C@H]1c3c(cc(OC)c(OC)c3Oc3cc4c(cc3OC)CCN(C)[C@H]4Cc3ccc(cc3)O2)CCN1C | 10.8 | 11.3 |
| COc1cc(NC(=O)CO)c2cc1Oc1ccc(cc1)C[C@H]1c3cc(c(OC)cc3CCN1C)Oc1c(OC)c(OC)cc3c1[C@H](C2)N(C)CC3 | 9.09 | 10.2 |
| COc1cc(NC(=O)COC(C)=O)c2cc1Oc1ccc(cc1)C[C@H]1c3cc(c(OC)cc3CCN1C)Oc1c(OC)c(OC)cc3c1[C@H](C2)N(C)CC3 | 8.41 | 10.2 |
| COc1cc(NC(=O)C2CC=CC2)c2cc1Oc1ccc(cc1)C[C@H]1c3cc(c(OC)cc3CCN1C)Oc1c(OC)c(OC)cc3c1[C@H](C2)N(C)CC3 | 5.76 | 6.42 |
| CCCCCC(=O)Nc1cc(OC)c2cc1C[C@H]1c3c(cc(OC)c(OC)c3Oc3cc4c(cc3OC)CCN(C)[C@H]4Cc3ccc(cc3)O2)CCN1C | 12.6 | 10.3 |
| COc1cc(NC(=O)C2CC2)c2cc1Oc1ccc(cc1)C[C@H]1c3cc(c(OC)cc3CCN1C)Oc1c(OC)c(OC)cc3c1[C@H](C2)N(C)CC3 | 7.68 | 6.45 |

| SMILES | IC50 [1] [µM] | IC50 (PLC-PRF-5) [µM] |
| --- | --- | --- |
| COc1cc(NC(=O)C(C)(C)C)c2cc1Oc1ccc(cc1)C[C@H]1c3cc(c(OC)cc3CCN1C)Oc1c(OC)c(OC)cc3c1[C@H](C2)N(C)CC3 | 6.4 | 5.37 |
| COc1cc(NC(=O)c2ccoc2)c2cc1Oc1ccc(cc1)C[C@H]1c3cc(c(OC)cc3CCN1C)Oc1c(OC)c(OC)cc3c1[C@H](C2)N(C)CC3 | 3.22 | 1.89 |
| COc1cc(NC(=O)c2cccc3ccccc23)c2cc1Oc1ccc(cc1)C[C@H]1c3cc(c(OC)cc3CCN1C)Oc1c(OC)c(OC)cc3c1[C@H](C2)N(C)CC3 | 5.63 | 5.56 |
| C=CC(=O)Nc1cc(OC)c2cc1C[C@H]1c3c(cc(OC)c(OC)c3Oc3cc4c(cc3OC)CCN(C)[C@H]4Cc3ccc(cc3)O2)CCN1C | 10.4 | 10.7 |
| COc1cc(NC(=O)C(F)(F)F)c2cc1Oc1ccc(cc1)C[C@H]1c3cc(c(OC)cc3CCN1C)Oc1c(OC)c(OC)cc3c1[C@H](C2)N(C)CC3 | 2.41 | 2.24 |
| COc1cc(NC(=O)c2c(Cl)cc(Cl)cc2Cl)c2cc1Oc1ccc(cc1)C[C@H]1c3cc(c(OC)cc3CCN1C)Oc1c(OC)c(OC)cc3c1[C@H](C2)N(C)CC3 | 4.12 | 6.54 |
| COc1cc(NC(=O)C(Cl)(Cl)Cl)c2cc1Oc1ccc(cc1)C[C@H]1c3cc(c(OC)cc3CCN1C)Oc1c(OC)c(OC)cc3c1[C@H](C2)N(C)CC3 | 4.26 | 3.22 |
| COc1cc(NC(=O)c2ccc(Cl)c(Cl)c2)c2cc1Oc1ccc(cc1)C[C@H]1c3cc(c(OC)cc3CCN1C)Oc1c(OC)c(OC)cc3c1[C@H](C2)N(C)CC3 | 3.81 | 6.82 |
| CNC(=O)c1cc(Oc2ccc(NC(=O)Nc3ccc(Cl)c(C(F)(F)F)c3)cc2)ccn1 [SORAFENIB] | 34.4 | 29.9 |
| COc1cc(NC(=O)c2ccc(Cl)cc2Cl)c2cc1Oc1ccc(cc1)C[C@H]1c3cc(c(OC)cc3CCN1C)Oc1c(OC)c(OC)cc3c1[C@H](C2)N(C)CC3 | 1.7 | 8.24 |
| COc1cc(NC(C)=O)c2cc1Oc1ccc(cc1)C[C@H]1c3cc(c(OC)cc3CCN1C)Oc1c(OC)c(OC)cc3c1[C@H](C2)N(C)CC3 | 12.2 | 12.3 |
| COc1cc(NC(=O)c2ccccc2)c2cc1Oc1ccc(cc1)C[C@H]1c3cc(c(OC)cc3CCN1C)Oc1c(OC)c(OC)cc3c1[C@H](C2)N(C)CC3 | 7.8 | 9.16 |
| COc1cc(NC(=O)c2cccc(Cl)c2)c2cc1Oc1ccc(cc1)C[C@H]1c3cc(c(OC)cc3CCN1C)Oc1c(OC)c(OC)cc3c1[C@H](C2)N(C)CC3 | 3.67 | 7.63 |
| COc1ccc(C(=O)Nc2cc(OC)c3cc2C[C@H]2c4c(cc(OC)c(OC)c4Oc4cc5c(cc4OC)CCN(C)[C@H]5Cc4ccc(cc4)O3)CCN2C)cc1 | 12 | 5.32 |
| COc1cc(NC(=O)c2ccc([N+](=O)[O-])o2)c2cc1Oc1ccc(cc1)C[C@H]1c3cc(c(OC)cc3CCN1C)Oc1c(OC)c(OC)cc3c1[C@H](C2)N(C)CC3 | 2.11 | 2.5 |
| COc1cc(NC(=O)c2ccc(Br)cc2)c2cc1Oc1ccc(cc1)C[C@H]1c3cc(c(OC)cc3CCN1C)Oc1c(OC)c(OC)cc3c1[C@H](C2)N(C)CC3 | 4.4 | 7.76 |
| COc1ccc2cc1Oc1ccc(cc1)C[C@H]1c3cc(c(OC)cc3CCN1C)Oc1c(OC)c(OC)cc3c1[C@H](C2)N(C)CC3 [FANCHININ] | 15 | 18.5 |
| COc1cc(NC(=O)CCCCl)c2cc1Oc1ccc(cc1)C[C@H]1c3cc(c(OC)cc3CCN1C)Oc1c(OC)c(OC)cc3c1[C@H](C2)N(C)CC3 | 9.76 | 7.22 |
